Assay results from patent publication US5064953A, “Intermediates cephalosporin derivatives” (Mochida Pharmaceutical Co., Ltd., priority 1983, dated 1991).
Converted amounts (≈) assume the structure as drawn.

How the values were obtained:
[1] = test system: Staphylococcus 242 (Methicillin-resistant strain); assay: Protection ability against systemic infection; assay type: in vivo; details: iv, 168 h, ICR mice, intraperitoneal infection, compound intravenously 1 hour after infection, survival at 1 week
Description: (§1) Protection ability against systemic infection was determined as follows. An aqueous suspension of test bacteria was intraperitoneally injected into groups of 10 four week old ICR mice. One hour after the infection, test compounds were intravenously administered. The number of surviving mice was counted 1 week after injection to determine the dose at which 50% of the test animals were alive (ED50 :mg/kg).
*Methicillin-resistant strain

[2] = test system: Escherichia coli 67; assay: Protection ability against systemic infection; assay type: in vivo; details: Escherichia coli, 67, iv, 168 h; ICR mice, intraperitoneal infection, compound intravenously 1 hour after infection, survival at 1 week
Description: as §1

[3] = test system: Klebsiella pneumoniae IF03317; assay: Protection ability against systemic infection; assay type: in vivo; details: IF03317, iv, 168 h, ICR mice, intraperitoneal infection, compound intravenously 1 hour after infection, survival at 1 week
Description: as §1

[4] = test system: Pseudomonas aeruginosa IF03445; assay: Protection ability against systemic infection; assay type: in vivo; details: IF03445, iv, 168 h, ICR mice, intraperitoneal infection, compound intravenously 1 hour after infection, survival at 1 week
Description: as §1

[5] = test system: Proteus morganii IF03848; assay: Antibacterial activity in vitro, agar plate dilution method (MIC); assay type: cell-based; details: Morganella morganii, 10^6 cells/ml, Mueller Hinton agar, 37° C., 20 hours
Description: (§2) Antibacterial activity in vitro was determined in accordance with the agar plate dilution method. A platinum loop each of test bacteria (10^6 cells/ml), cultured in Mueller Hinton broth, was inoculated on Mueller Hinton agar plates which contained test compounds at various concentrations. After cultivating at 37° C. for 20 hours, the minimum inhibitory concentration (MIC μg/ml) was determined.

[6] = test system: Staphylococcus aureus Smith; assay: as above; assay type: cell-based; details: 10^6 cells/ml, Mueller Hinton agar, 37° C., 20 hours
Description: as §2

[7] = test system: Escherichia coli 67; assay: as above; assay type: cell-based; details: 10^6 cells/ml, Mueller Hinton agar, 37° C., 20 hours
Description: as §2

[8] = test system: Serratia marcescens IF03759; assay: as above; assay type: cell-based; details: 10^6 cells/ml, Mueller Hinton agar, 37° C., 20 hours
Description: as §2

[9] = test system: Klebsiella pneumoniae IF03317; assay: as above; assay type: cell-based; details: 10^6 cells/ml, Mueller Hinton agar, 37° C., 20 hours
Description: as §2

[10] = test system: Pseudomonas aeruginosa IF03445; assay: as above; assay type: cell-based; details: 10^6 cells/ml, Mueller Hinton agar, 37° C., 20 hours
Description: as §2

[11] = LD50 determined in accordance with the Probit method; details: in vivo, iv
Description: Next, LD50 of representative examples of the compounds of the present invention is shown in Table 3 wherein LD50 was determined in accordance with the Probit method.

Structure (SMILES) | ED50 [1] | ED50 [2] | ED50 [3] | ED50 [4] | MIC [5] | MIC [6] | MIC [7] | MIC [8] | MIC [9] | MIC [10] | LD50 [11]
Cc1nnc(SCC2=C(C(=O)O)N3C(=O)[C@@H](NC(=O)Cn4cnnn4)[C@H]3SC2)s1 [CEZ, reference compound] | 74 mg/kg | – | – | – | – | – | – | – | – | – | –
CO/N=C(\C(=O)N[C@@H]1C(=O)N2C(C(=O)O)=C(CSc3cc(C)nc4ncnn34)CS[C@H]12)c1csc(N)n1 [Compound 1, (6R,7R)-7-[2-(2-amino-4-thiazolyl)-2-(Z-methoxyimino)acetamido]-3-[(5-methyl-s-triazolo[1,5-a]pyrimidin-7-yl)thiomethyl]-8-oxo-5-thia-1-azabicyclo[4.2.0] oct-2-ene-2-carboxylic acid] | – | 0.7 mg/kg | 0.1 mg/kg | 780 mg/kg | 0.78 µg/mL (≈ 1.39 µM) | 1.57 µg/mL (≈ 2.8 µM) | < 0.05 µg/mL | 0.2 µg/mL (≈ 0.356 µM) | < 0.05 µg/mL | 50 µg/mL (≈ 89 µM) | > 1000 mg/kg
CO/N=C(\C(=O)N[C@@H]1C(=O)N2C(C(=O)O)=C(CSc3cc(C)nc4nc(C(=O)O)nn34)CS[C@H]12)c1csc(N)n1 [Compound 2, (6R,7R)-7-[2-(2-amino-4-thiazolyl)-2-(Z-methoxyimino)acetamido]-3-[(2-carboxy-5-methyl-s-triazolo[1,5-a]pyrimidin-7-yl)thiomethyl]-8-oxo-5-thia-1-azabicyclo[4.2.0]oct-2-ene-2-carboxylic acid] | – | 0.8 mg/kg | 0.1 mg/kg | 360 mg/kg | 0.2 µg/mL (≈ 0.33 µM) | 1.57 µg/mL (≈ 2.59 µM) | < 0.05 µg/mL | < 0.05 µg/mL | < 0.05 µg/mL | 12.5 µg/mL (≈ 20.6 µM) | > 1000 mg/kg
CO/N=C(\C(=O)N[C@@H]1C(=O)N2C(C(=O)O)=C(CSc3cc(C(=O)O)nc4ncnn34)CS[C@H]12)c1csc(N)n1 [Compound 6, (6R,7R)-7-[2-(2-amino-4-thiazolyl)-2-(Z-methoxyimino)acetamido]-3-[(5-carboxy-s-triazolo[1,5-a]pyrimidin-7-yl)thiomethyl]-8-oxo-5-thia-1-azabicyclo [4.2.0]oct-2-ene-2-carboxylic acid] | – | 0.8 mg/kg | 0.1 mg/kg | 230 mg/kg | 0.2 µg/mL (≈ 0.338 µM) | 1.57 µg/mL (≈ 2.65 µM) | < 0.05 µg/mL | 0.2 µg/mL (≈ 0.338 µM) | < 0.05 µg/mL | 6.25 µg/mL (≈ 10.6 µM) | > 1000 mg/kg
Cc1cc(SCC2=C(C(=O)O)N3C(=O)[C@@H](NC(=O)/C(=N\O)c4csc(N)n4)[C@H]3SC2)n2nc(C(=O)O)nc2n1 [Compound 8, (6R,7R)-7-[2-(2-amino-4-thiazolyl)-2-(Z-hydroxyimino)acetamido]3-[(2-carboxy-5-methyl-s-triazolo[1,5-a]pyrimidin-7-yl)thiomethyl]-8-oxo-5-thia-1-azabicyclo[4.2.0]oct-2-ene-2-carboxylic acid] | 3.55 mg/kg | – | 7.68 mg/kg | – | 0.39 µg/mL (≈ 0.659 µM) | 0.78 µg/mL (≈ 1.32 µM) | 0.2 µg/mL (≈ 0.338 µM) | 0.2 µg/mL (≈ 0.338 µM) | < 0.05 µg/mL | > 100 µg/mL | > 1000 mg/kg
Cc1cc(SCC2=C(C(=O)O)N3C(=O)[C@@H](NC(=O)/C(=N\OC(=O)c4ccco4)c4csc(N)n4)[C@H]3SC2)n2nc(C(=O)O)nc2n1 [Compound 9, (6R,7R)-7-[2-(2-amino-4-thiazolyl)-2-[Z-(2-furancarbonyl)oxyimino]acetamido]-3-[(2-carboxy-5-methyl-s-triazolo[1,5-a]pyrimidin-7-yl)thiomethyl]-8-oxo-5-thia-1-azabicyclo[4.2.0]oct-2-ene-2-carboxylic acid] | 2.11 mg/kg | – | 7.68 mg/kg | – | 0.2 µg/mL (≈ 0.292 µM) | 0.39 µg/mL (≈ 0.569 µM) | < 0.05 µg/mL | < 0.05 µg/mL | < 0.05 µg/mL | 100 µg/mL (≈ 146 µM) | > 1000 mg/kg
Cc1cc(SCC2=C(C(=O)O)N3C(=O)[C@@H](NC(=O)/C(=N\OC(=O)c4cccs4)c4csc(N)n4)[C@H]3SC2)n2nc(C(=O)O)nc2n1 [Compound 10, (6R,7R)-7-[2-(2-amino-4-thiazolyl)-2-[Z-(2-thiophenecarbonyl)oxyimino]acetamido]-3-[(2-carboxy-5-methyl-s-triazolo[1,5-a]pyrimidin-7-yl)-thiomethyl]-8-oxo-5-thia-1-azabicyclo[4.2.0]-oct-2-ene-2-carboxylic acid] | 8.01 mg/kg | – | – | – | 0.39 µg/mL (≈ 0.556 µM) | 0.39 µg/mL (≈ 0.556 µM) | 0.1 µg/mL (≈ 0.143 µM) | 0.1 µg/mL (≈ 0.143 µM) | < 0.05 µg/mL | 50 µg/mL (≈ 71.3 µM) | > 1000 mg/kg
CO/N=C(\C(=O)N[C@@H]1C(=O)N2C(C(=O)O)=C(CSc3nn4c(=O)cc(C)nc4s3)CS[C@H]12)c1csc(N)n1 [Compound 24, (6R,7R)-7-[2-(2-amino-4-thiazolyl)-2-(Z-methoxyimino)acetamido]-3-[(7-methyl-5oxo-5H-1,3,4-thiadiazolo[3,2-a]pyrimidin-2-yl)thiomethyl]-8-oxo-5-thia-1-azabicyclo[4.2.0]oct-2-ene-2-carboxylic acid] | – | – | – | – | 0.39 µg/mL (≈ 0.656 µM) | 0.78 µg/mL (≈ 1.31 µM) | < 0.05 µg/mL | 0.2 µg/mL (≈ 0.336 µM) | < 0.05 µg/mL | 50 µg/mL (≈ 84.1 µM) | –
Cc1cc(SCC2=C(C(=O)O)N3C(=O)[C@@H](NC(=O)/C(=N\OC(=O)c4ccccc4)c4csc(N)n4)[C@H]3SC2)n2nc(C(=O)O)nc2n1 [Compound 25, (6R,7R)-7-[2-(2-amino-4-thiazolyl)-2-(Z-benzoyloxyimino)acetamido]-3 [(2-carboxy-5-methyl-s-triazolo[1,5-a]pyrimidin-7-yl)thiomethyl]8-oxo-5-thia-1-azabicyclo[4.2.0]oct-2-ene 2-carboxylic acid] | – | – | – | – | 0.39 µg/mL (≈ 0.561 µM) | 0.39 µg/mL (≈ 0.561 µM) | 0.1 µg/mL (≈ 0.144 µM) | 0.1 µg/mL (≈ 0.144 µM) | < 0.05 µg/mL | 50 µg/mL (≈ 71.9 µM) | –
Cc1cc(SCC2=C(C(=O)O)N3C(=O)[C@@H](NC(=O)/C(=N\OC(=O)c4ccc[nH]4)c4csc(N)n4)[C@H]3SC2)n2nc(C(=O)O)nc2n1 [Compound 26, (6R,7R)-7-[2-(2-amino-4-thiazolyl)-2-[Z-(2-pyrrolecarbonyl)oxyimino]acetamido]-3-[(2-carboxy-5-methyl-s-triazolo[1,5-a]pyrimidin-7-yl)thiomethyl]-8-oxo-5-thia-1-azabicyclo[4.2.0]oct-2-ene-2-carboxylic acid] | – | – | – | – | 0.78 µg/mL (≈ 1.14 µM) | 1.57 µg/mL (≈ 2.29 µM) | 0.2 µg/mL (≈ 0.292 µM) | 0.2 µg/mL (≈ 0.292 µM) | < 0.05 µg/mL | 25 µg/mL (≈ 36.5 µM) | –
CC(=O)Oc1ccc(C(=O)O/N=C(\C(=O)N[C@@H]2C(=O)N3C(C(=O)O)=C(CSc4cc(C)nc5nc(C(=O)O)nn45)CS[C@H]23)c2csc(N)n2)cc1OC(C)=O [Compound 27, (6R,7R)-7-[2-(2-amino-4-thiazolyl)-2-[Z-(3,4-diacetoxybenzoyl)oxyimino]acetamido]-3-[(2-carboxy-5-methyl-s-triazolo[1,5-a]pyrimidin-7-yl)thiomethyl]-8-oxo-5-thia-1-azabicyclo[4.2.0]oct-2-ene-2-carboxylic acid] | – | – | – | – | 0.2 µg/mL (≈ 0.246 µM) | 1.57 µg/mL (≈ 1.93 µM) | < 0.05 µg/mL | < 0.05 µg/mL | < 0.05 µg/mL | 0.39 µg/mL (≈ 0.48 µM) | –
